From patent publication US6855346B2, “Pharmaceutical composition having prophylactic effects on lamivudine-related disease relapse and drug resistance and methods of using the same” (priority 2001, dated 2005)
Marks after values point to notes of the source that are not given here.

How the values were obtained:
Assay type in all cases: in vivo, human
[1] = Clinical study of YGK and lamivudine in chronic hepatitis B patients: adverse effects; details: after 16 weeks of treatment, of 42 patients; disappeared after 2 more weeks
Method: (§1) A total of 135 patients who met the criteria were included in this study. Patients were randomized and divided into group A, B and C. Group A was the treatment group with 48 patients while group B with 42 patients and group C with 45 patients were positive control groups.
(§2) (2) Treatment Method • Each treatment period lasted for 4 weeks.
(§3) (1) Observe Items • (a) Hepatitis B biological markers: Serum HBV-DNA, HBeAg, Anti-Hbe, HbsAg, Anti-HBs were analyzed before treatment, at week 4, 8, 16 and 32 during treatment and at week 24 and 48 after treatment termination. • Serum HBV-DNA was measured by polymerase chain reaction (PCR) using 9600 DNA Amplification Machine (PE corp., USA) and reagents from E-li-kang Biotech. Corp., Zhejiang, Wenzhou, China. Serum HBeAg, anti-HBe, HBsAg, and Anti-HBs were determined by the Imx method using Automatic Quick Micro Immune Analytic Instrument and reagents from Abbott Laboratories, USA. • (b) Hepatic functions: ALT was monitored at week 4, 8, 16 and 32 during treatment and at week 24 and 48 after treatment termination. • (c) Adverse effects: Patients were constantly monitored by the medical staff for adverse effect throughout the treatment periods.

[2] = system: Chronic Hepatitis B (HBV); experiment: Clinical study of YGK and lamivudine in chronic hepatitis B patients: serum biological markers (Example 6)
Method: Patients were randomized and divided into group A, B and C. Group A was the treatment group with 48 patients while group B with 42 patients and group C with 45 patients were positive control groups.
as §2, §3
Data obtained at weeks 4, 8, 16, and 32 during treatment and at weeks 24 and 48 after treatment termination were analyzed by Chi-square (X^2) and t-test. The statistical results obtained were used to evaluate the therapeutic effects.

ALT = experiment: Clinical study of YGK and lamivudine in chronic hepatitis B patients: hepatic function (ALT)
Method: as §1, §2, §3
Data obtained at weeks 4, 8, 16, and 32 during treatment and at weeks 24 and 48 after treatment termination were analyzed by Chi-square (X^2) and t-test. […]

[3] = number of patients after 4 weeks of treatment
[4] = number of patients after 8 weeks of treatment
[5] = number of patients after 16 weeks of treatment
[6] = number of patients after 32 weeks of treatment
[7] = number of patients at week 24 after treatment termination
[8] = number of patients at week 48 after treatment termination

Compound: Nc1ccn([C@@H]2CS[C@H](CO)O2)c(=O)n1 [lamivudine, (2R, cis)-4-amino-1-(2-hydroxmethyl-1,3-oxathiolan-5-yl)-(1H)-pyrimidin-2-one]
- patients showing adverse effects (anorexia, abdominal discomfort, fluctuating ALT levels) [1]: 8
- HBeAg seroconversion ([2]; after 16 weeks of treatment): 4.8%
- patients with negative HBV DNA ([2]; after 16 weeks of treatment): 61.9%
- HBV DNA negative conversion ([2]; after 32 weeks of treatment): 90.5%
- HBeAg seroconversion ([2]; after 32 weeks of treatment): 9.5%
- rate for patients turning negative in HBeAg ([2]; after lamivudine treatment): 9.5%
- Seroconversion of HBeAg [2, 3]: 0**
- Seroconversion of HBsAg [2, 3]: 0
- Seroconversion of anti-Hbe [2, 3]: 0**
- Seroconversion of Anti-HBs [2, 4]: 0
- Seroconversion of HBeAg [2, 4]: 0**
- Seroconversion of HBsAg [2, 4]: 0**
- Seroconversion of anti-HBe [2, 4]: 0**
- Seroconversion of Anti-HBs [2, 5]: 0
- Seroconversion of HBeAg [2, 5]: 2**
- Seroconversion of HBsAg [2, 5]: 0**
- Seroconversion of anti-HBe [2, 5]: 0**
- Seroconversion of Anti-HBs [2, 6]: 1
- Seroconversion of HBeAg [2, 6]: 4**
- Seroconversion of HBsAg [2, 6]: 1**
- Seroconversion of anti-HBe [2, 6]: 4**
- Seroconversion of Anti-HBs 24W [2, 7]: 1**
- Seroconversion of HBeAg 24W [2, 7]: 4**
- Seroconversion of HBsAg 24W [2, 7]: 1**
- Seroconversion of anti-HBe 24W [2, 7]: 4**
- Seroconversion of Anti-HBs 48W [2, 8]: 0**
- Seroconversion of HBeAg 48W [2, 8]: 0**
- Seroconversion of HBsAg 48W [2, 8]: 0**
- Seroconversion of anti-HBe 48W [2, 8]: 0**
- patients relapsed to positive for HBV DNA ([2]; of the 38 patients HBV DNA negative during treatment, week 48 after treatment termination): 12
- overall HBV DNA seroconversion rate ([2]; week 48 after treatment termination): 61.9%
- patients with normal ALT (ALT; after 4 weeks of treatment): 66.6%
- patients with normal ALT (ALT; [3]): 28**
